{"source": "patent US8642656B2", "about": "“Calixarene-based peptide conformation mimetics, methods of use, and methods of making” (priority 2004, dated 2014)", "key": {"endothelial cell (EC)": {"test_system": "endothelial cell (EC)", "experiment": "EC Proliferation Assay, [3H]thymidine incorporation (Example 36, Table 1)", "type": "cell-based", "conditions": "read-out: EC proliferation IC50 (conc)", "procedure": "Human umbilical vein derived EC(HUVEC) were harvested from normal human umbilical cords by perfusion with 0.125% trypsin/EDTA as described in Groenewegen et al., J. Exp. Med. 164, 131-143 (1986). For determination of quiescent EC phenotype isolated ECs were immediately fixed in 1% paraformaldehyde. Human microvascular ECs (MVECs) were isolated. ECs were cultured in fibronectin coated tissue culture flasks in culture medium (RPMJ-1640 with 20% human serum (HS), supplemented with 2 mM glutamine and 100 U/ml penicillin and 0.1 mg/ml streptomycin).\nEC proliferation was measured using a [^3H]thymidine incorporation assay. ECs were seeded at 5000 cells/well in flatbottomed tissue culture plates and grown for 3 days, in the absence or presence of regulators, in culture medium. During the last 6 hours of the assay, the culture was pulsed with 0.5μ Ci [methyl-^3H]thymidine/well."}, "EC [1]": {"test_system": "EC", "experiment": "EC % apoptosis (Table 1)", "type": "cell-based, human"}, "EC [2]": {"test_system": "EC", "experiment": "EC % total cell death (Table 1)", "type": "cell-based, human"}, "Fibro": {"test_system": "Fibro", "experiment": "Other cells, Fibro (Table 1)", "type": "cell-based"}, "Hemolysis (Table 1)": {"experiment": "Hemolysis (Table 1)", "type": "cell-based"}, "SCK": {"test_system": "SCK", "experiment": "Other cells, SCK (Table 1)", "type": "cell-based"}, "Solubility (Table 1)": {"experiment": "Solubility (Table 1)", "type": "physicochemical"}, "MA148": {"test_system": "MA148", "experiment": "Other cells, MA148 (Table 1)", "type": "cell-based, human"}, "E. coli J96": {"test_system": "E. coli J96", "experiment": "Bactericidal assay on J96", "type": "cell-based", "conditions": "for IC50: read-out: Bacterial activity on J96 IC50 (conc)", "description": "Pseudomonas aeruginosa type 1 is a clinical, smooth strain isolate stereotyped by using the scheme of Homma et al., Japan. J. Exp. Med. 46, 329-336 (1976) and maintained in the lab by monthly transfer on blood agar plates. E. coli J96, IA2, and H5 are smooth strain, uropathogenic clinical isolates kindly maintained and provided by J. R. Johnson and described in Johnson et al., J. Infect. Disease 173, 920-926 (1996) for J96 and IA2 and in Johnson et al., J. Infect. Disease 173, 746-749 (1996) for H5. J5 is an E. coli rough strain initially referenced by G. R. Siber and discussed in Warren et al., Infect. Immunity 55, 1668-1673 (1987) and is analogous to the smooth strain E. coli 0111:B4 used in the BioWhittaker LAL endotoxin detection and quantitation kit described below. Gram-positive MN8 and MNHO are two patient isolates of Staphylococcus aureus, which were kindly provided by P. M. Schlievert and described in Bohach et al., Rev. Infect. Diseases 11, 75-82 (1989) for MNHO and in Schlievert et al., J. Infect. Diseases 147, 236-242 (1983) for MN8. All cultures are maintained on nutrient agar plates.\nPyrogen-free solutions were used throughout the assay. Log phase bacteria were obtained by transferring an overnight culture or scraping crystals off-85° C glycerol stocks of overnight cultures. Bacteria were washed and resuspended in 0.9% sodium chloride with adjustment to an optical density at 650 nm which yields 3×10^8 CFU/ml. Bacteria were then diluted 1:10 in 0.08 M citrate phosphate buffer, pH 7.0 (prepared by mixing 0.08 M citric acid with 0.08 M dibasic sodium phosphate). Bacteria (0.15 ml) were incubated with the test compound in a final volume of 1.0 ml of buffer. The assay was done in 17×100 polypropylene tubes in a reciprocal water bath shaker at 37° C for 30 minutes. Following this 30 minute (min) incubation. 10-fold dilutions were made in 0.9% sodium chloride. Dilutions were done to 10^−4 and 20 μl of each dilution was streaked across an agar plate. Gram-positive organisms were plated on nutrient agar plates containing 2% agar and Gram-negative organisms were plated on MacConkey agar (2%). Plates were incubated overnight at 37° C and counted the next morning. The dilution containing 10-100 bacteria was counted and the number multiplied by 50 to adjust all counts to the number bacteria killed per milliliter. Compound concentrations were converted to logarithm base ten and graphed. Bactericidal activity was determined by dose response where LD50 values were determined by best fits of a sigmoidal curve to the dose response data."}, "[3]": {"test_system": "LPS from E. coli serotype 0111:B4", "experiment": "LPS neutralization assay (Limulus amoebocyte lysate, QCL-1000)", "type": "biochemical", "conditions": "Table 3; errors estimated ±30%; read-out: IC50 values (μM) for LPS binding, E. coli 0111:B4", "description": "(§1) The ability of compounds to neutralize endotoxin was detected in vitro by using the chromogenic QCL-1000 kit from BioWhittaker, Inc. (Walkersville, Md.), and as described in their protocol. This Limulus amoebocyte lysate (LAL) assay is quantitative for Gram negative bacterial endotoxin (lipopolysaccharide, LPS). In this assay compounds that are active inhibit the LPS-mediated activation of a proenzyme whose active form would release p-nitroaniline (pNA) from a colorless synthetic substrate producing a yellow color (pNA) whose absorption is monitored spectrophotometrically at 405-410 nm. The initial rate of enzyme activation is proportional to the concentration of endotoxin present.\n(§2) Variants of LPS from six Gram negative bacteria were used: E. coli serotypes 0111:B4 (Combrex, Walkersville, Md.) and 055:B5 (Sigma, St. Louis, Mo.); Klebsiella pneumoniae (List Biologies, San Jose, Calif.); Pseudomonas aeruginosa (List Biologies, San Jose, Calif.); Salmonella typhimurium (List Biologies, San Jose, Calif.), and Serratia marcascens (List Biologies, San Jose, Calif.). The concentration of compound required to neutralize a given LPS and therefore to inhibit the Limulus amoebocyte lysate driven by 0.04 units of any given LPS was determined by dose response curves fit by using a standard sigmoidal function to determined the JC50 value for each lopomimetic compound. The 0.04 units corresponds to 0.01 ng LPS from E. coli serotype 055:B5, 0.01 ng LPS from E. coli serotype 0111:B4, 0.003 ng LPS from K. pneumoniae, 0.01 ng LPS from P. aeruginosa, 0.03 ng LPS from S. typhimurium, and 0.03 ng LPS from S. marcascens."}, "[4]": {"test_system": "LPS from E. coli serotype 055:B5", "experiment": "LPS neutralization assay (Limulus amoebocyte lysate, QCL-1000)", "type": "biochemical", "conditions": "Table 3; errors estimated ±30%; read-out: IC50 values (μM) for LPS binding, E. coli 055:B5", "description": "as §1, §2"}, "[5]": {"test_system": "MA148 human ovarian carcinoma", "experiment": "Proliferation of MA148 tumor cells", "type": "cell-based", "conditions": "read-out: IC50 against MA148 tumor cells"}, "LPS from S. typhimurium": {"test_system": "LPS from S. typhimurium", "experiment": "LPS neutralization assay (Limulus amoebocyte lysate, QCL-1000)", "type": "biochemical, Salmonella typhimurium", "conditions": "Table 3; errors estimated ±30%; read-out: IC50 values (μM) for LPS binding, Salmonella", "description": "as §1, §2"}, "LPS from K. pneumoniae": {"test_system": "LPS from K. pneumoniae", "experiment": "LPS neutralization assay (Limulus amoebocyte lysate, QCL-1000)", "type": "biochemical, Klebsiella pneumoniae", "conditions": "Table 3; errors estimated ±30%; read-out: IC50 values (μM) for LPS binding, Klebsiella", "description": "as §1, §2"}, "HUVEC": {"test_system": "HUVEC", "experiment": "EC migration, wound healing assay", "type": "cell-based, human", "conditions": "25 μM", "procedure": "EC migration was measured in the wound healing assay. HUVEC were cultured in triplicate on a 1-mg/ml fibronectin coat in a 24-well tissue culture plate. Cells were grown for 3 days until confluence. When confluent, a wound was made in the well, using a blunt glass pipette. The medium was replaced with medium containing 10 ng/ml bFGF with or without 25 μM compound and at 0, 2, 4, 6, and 8 hours, the wound width was measured at four different predefined places. Photographs were made using an inverted microscope and a Contax 167 MT 35 mm camera."}, "LPS from S. marcascens": {"test_system": "LPS from S. marcascens", "experiment": "LPS neutralization assay (Limulus amoebocyte lysate, QCL-1000)", "type": "biochemical, Serratia marcascens", "conditions": "Table 3; errors estimated ±30%; read-out: IC50 values (μM) for LPS binding, Serratia", "description": "as §1, §2"}, "fibroblasts": {"test_system": "fibroblasts", "experiment": "Proliferation of fibroblasts (general cell toxicity check)", "type": "cell-based", "conditions": "read-out: concentration giving 50% growth inhibition, fibroblasts"}, "B16F10 tumor cells": {"test_system": "B16F10 tumor cells", "experiment": "Proliferation of B16F10 tumor cells", "type": "cell-based, murine", "conditions": "read-out: IC50 against B16F10 tumor cells"}, "LPS from P. aeruginosa": {"test_system": "LPS from P. aeruginosa", "experiment": "LPS neutralization assay (Limulus amoebocyte lysate, QCL-1000)", "type": "biochemical, Pseudomonas aeruginosa", "conditions": "Table 3; errors estimated ±30%; read-out: IC50 values (μM) for LPS binding, P.a.", "description": "as §1, §2"}, "bFGF-stimulated HUVEC": {"test_system": "bFGF-stimulated HUVEC", "experiment": "EC proliferation, [3H]-thymidine incorporation, bFGF-stimulated HUVEC (Example 48)", "type": "cell-based, human", "conditions": "bFGF-stimulated HUVEC; highest dose tested 25 μM", "procedure": "Proliferation is expressed as mean counts per minute (cpm) of quadruplicate cultures in three independent experiments (±SEM). […] Human umbilical vein derived EC (HUVEC) were harvested from normal human umbilical cords by perfusion with 0.125% trypsin/EDTA. Harvested HUVECs were cultured in gelatin coated tissue culture flasks and subcultured 1:3 once a week in culture medium (RPM1-1640 with 20% human serum (HS), supplemented with 2 mM glutamine and 100 U/mL penicillin and 0.1 mg/mL streptomycin). Statistical analysis was performed by using the Student's t-test."}}, "data": [{"smiles": "CC(C)(C)c1cc2c(O)c(c1)Cc1cc(C(C)(C)C)cc(c1OCCNC(=N)N)Cc1cc(C(C)(C)C)cc(c1O)Cc1cc(C(C)(C)C)cc(c1OCCNC(=N)N)C2", "values": [{"measurement": "IC50", "setting": "endothelial cell (EC)", "value": 8.3, "unit": "µM"}, {"measurement": "EC % Apoptosis 25 μM", "setting": "EC [1]", "value": "No effect"}, {"measurement": "EC % total cell death", "setting": "EC [2]", "value": 65, "unit": "%"}, {"measurement": "Other cells 25 μM, Fibro", "setting": "Fibro", "value": 100, "unit": "% 100% 100%"}, {"measurement": "Hemolysis", "setting": "Hemolysis (Table 1); at 10^−6 M", "value": 100, "unit": "% at 10^−6 M"}, {"measurement": "Other cells 25 μM, SCK", "setting": "SCK", "value": 100, "unit": "% 100% 100%"}, {"measurement": "Solubility", "setting": "Solubility (Table 1); DMSO/H2O (30/70%), at >80° C., no infl. of pH 2 + 11", "value": "DMSO/H2O (30/70%) up to 30 mg/ml at >80° C., no infl. of pH 2 + 11"}, {"measurement": "Other cells 25 μM, MA148", "setting": "MA148", "value": 100, "unit": "% 100% 100%"}, {"measurement": "IC50", "setting": "E. coli J96", "value": "> 3.8", "unit": "µM"}]}, {"smiles": "CCCc1cc2c(OCC(=O)NCCN(C)C)c(c1)Cc1cc(CCC)cc(c1OCC(=O)NCCN(C)C)Cc1cc(CCC)cc(c1OCC(=O)NCCN(C)C)Cc1cc(CCC)cc(c1OCC(=O)NCCN(C)C)C2", "note": "[Compound 11a]", "values": [{"measurement": "IC50", "setting": "[3]", "value": "> 5", "unit": "µM"}, {"measurement": "IC50", "setting": "[4]", "value": 4.4, "unit": "µM"}, {"measurement": "IC50", "setting": "[5]", "value": 8, "unit": "µM"}, {"measurement": "IC50", "setting": "LPS from S. typhimurium", "value": 4.1, "unit": "µM"}, {"measurement": "IC50", "setting": "LPS from K. pneumoniae", "value": 0.08, "unit": "µM"}, {"measurement": "effect on EC migration, wound assay (in words)", "setting": "HUVEC", "value": "ineffective"}, {"measurement": "IC50", "setting": "LPS from S. marcascens", "value": "> 5", "unit": "µM"}, {"measurement": "IC50", "setting": "fibroblasts", "value": "~20", "unit": "µM"}, {"measurement": "IC50", "setting": "B16F10 tumor cells", "value": 15, "unit": "µM"}, {"measurement": "IC50", "setting": "LPS from P. aeruginosa", "value": "> 5", "unit": "µM"}, {"measurement": "IC50", "setting": "bFGF-stimulated HUVEC", "value": "> 25", "unit": "µM"}, {"measurement": "bactericidal activity (in words)", "setting": "E. coli J96; in the micromolar range (Table 1)", "value": "reasonably good bactericidal activity"}]}, {"smiles": "CN(C)CCNC(=O)COc1c2cccc1Cc1cccc(c1OCC(=O)NCCN(C)C)Cc1cccc(c1OCC(=O)NCCN(C)C)Cc1cccc(c1OCC(=O)NCCN(C)C)C2", "note": "[drawing 7]", "values": [{"measurement": "IC50", "setting": "endothelial cell (EC)", "value": 2.5, "unit": "µM"}, {"measurement": "EC % Apoptosis 25 μM", "setting": "EC [1]", "value": "No effect"}, {"measurement": "EC % total cell death", "setting": "EC [2]", "value": "No effect"}, {"measurement": "Other cells 25 μM, Fibro", "setting": "Fibro", "value": 0, "unit": "%"}, {"measurement": "Hemolysis", "setting": "Hemolysis (Table 1); at 10^−5 M", "value": "None at 10^−5 M"}, {"measurement": "Other cells 25 μM, SCK", "setting": "SCK", "value": 40, "unit": "%"}, {"measurement": "Solubility", "setting": "Solubility (Table 1); H2O, at pH <7.0, r.t.", "value": "H2O up to 30 mg/ml at pH <7.0, r.t."}, {"measurement": "Other cells 25 μM, MA148", "setting": "MA148", "value": 80, "unit": "%"}, {"measurement": "IC50", "setting": "E. coli J96", "value": "> 3.8", "unit": "µM"}]}]}
